Assay results: patent US6569449B1, “Transdermal delivery of opioid antagonist prodrugs” (University of Kentucky Research Foundation, priority 2000, dated 2003)
Converted amounts (≈) assume the structure as drawn. Where two headings read alike, the source gives them in different places.

Assays:
[1] = Octanol/water partition coefficients; format: physicochemical; details: octanol/pH 7.4 isotonic phosphate buffer, room temperature; read-out: Experimental log P
Method: The octanol/water partition coefficients were determined using pH 7.4 isotonic phosphate buffer as the aqueous phase. All steps were carried out at room temperature. An appropriate amount of drug was weighed into a vial and dissolved in a known amount of octanol. An equivalent amount of buffer was then added to the vial and the phases shaken for 24 hours. The vials were left undisturbed for at least one hour after shaking. An exact volume was taken from the aqueous phase, diluted with acetonitrile, and then analyzed by HPLC. The final pH of the aqueous phase at the end of the shaking period was 7.95. Similarly, an exact volume was taken from the octanol phase, diluted with acetonitrile, and then analyzed by HPLC. Partition coefficients were calculated by determining the phase concentration ratios.

[2] = Solubilities in light mineral oil and pH 7.4 isotonic phosphate buffer; format: physicochemical; details: thermodynamic from solid, 32° C., 48 hours equilibration
Method: The solubilities of naltrexone and its esters were obtained by equilibrating large excesses of each substance with the respective vehicle, light mineral oil, or pH 7.4 isotonic phosphate buffer at 32° C. To hasten the attainment of equilibrium, each slurry was continuously shaken in a sealed container in a shaking incubation oven. Samples were taken, filtered (mineral oil:Millex FG-13, Millipore and buffer:glass microfiber, Gelman) above 32° C., measured with respect to volume, and diluted with the appropriate amount of acetonitrile. The diluted samples were analyzed by HPLC. The initial forty percent of each filtrate was discarded to eliminate the possibility that adsorption of drug on the filter and/or the filtering apparatus might influence the solubility determination. The sampling procedure was repeated at least once for each sample. […] Therefore, the equilibration times for all the studies were 48 hours.

With `O=C1CC[C@@]2(O)[C@H]3Cc4ccc(O)c5c4[C@@]2(CCN3CC2CC2)[C@H]1O5` [NTX, Naltrexone] the logP at 24 h [1] was 0.67, the solubility at 48 h ([2]; aqueous buffer, pH 7.4 isotonic phosphate buffer, read-out: Phosphate Buffer Solubility pH 7.4 32° C.) was 15.2 mM (≈ 5190 µg/mL) and the solubility at 48 h ([2]; oil or lipid, light mineral oil, read-out: Light Mineral Oil Solubility 32° C.) was 0.258 mM (≈ 88.1 µg/mL).
